# In patent US20260357222A1, “GROWTH-BASED SELECTION PLATFORM FOR NONCANONICAL COFACTOR OXIDIZING ENZYMES” (The Regents of the University of California, priority 2022, published 2026):
# How the values were obtained:
# [1] = biological target: T1, Lactobacillus pentosus NADH oxidase (Lp Nox), wild type, SEQ ID NO:1 (Lactiplantibacillus pentosus, UniProt A0A0U3FIG2); assay: Lp Nox enzymatic kinetics, cofactor oxidation at 340 nm, wild type; assay type: biochemical; details: role: cofactor; 50 mM Tris-HCl pH 7.0, 37 °C; enzyme could not be saturated with the cofactor concentrations tested
# T1 sequence (A0A0U3FIG2 1-450): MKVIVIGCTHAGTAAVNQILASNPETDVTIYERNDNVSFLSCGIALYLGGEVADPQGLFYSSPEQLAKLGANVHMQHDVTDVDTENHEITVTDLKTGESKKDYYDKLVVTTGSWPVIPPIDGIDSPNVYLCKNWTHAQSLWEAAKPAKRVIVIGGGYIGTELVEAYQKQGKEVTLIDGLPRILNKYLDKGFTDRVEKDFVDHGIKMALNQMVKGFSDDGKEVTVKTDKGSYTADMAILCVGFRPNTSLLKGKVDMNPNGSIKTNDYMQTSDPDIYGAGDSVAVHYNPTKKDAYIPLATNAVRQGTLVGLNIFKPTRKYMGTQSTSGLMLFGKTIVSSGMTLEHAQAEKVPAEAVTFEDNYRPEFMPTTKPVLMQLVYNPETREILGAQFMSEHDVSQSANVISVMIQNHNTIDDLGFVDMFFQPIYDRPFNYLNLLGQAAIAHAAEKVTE
# Protocol: (§1) Protein Expression and Purification. Lp Nox wild type or variants (see Table 1) are expressed with E. coli BL21 (DE3) with plasmids inoculated in 2× YT media with 200 mg L^−1 ampicillin. Expression was carried out by inoculation of 20 mL 2× YT media supplied with antibiotics and an overnight culture incubated at 30 °C, 250 RPM with an OD600nm of 0.072. Cells were grown at 37 °C in 50 mL conical tubes, and the cultures were induced with 0.5 mM IPTG at an OD600nm of 0.6-1.0. The 20 mL culture was then incubated at 27 °C and 250 RPM for 24 h. After 24 h, cells were harvested for protein extraction (centrifugation at 4 °C, 3000 RPM, 20 min). Cell pellets were resuspended in Zymo His-Binding buffer (Zymo Research Corporation) supplied with 0.15 mM FAD, 1 μL/mL DNase (Sigma Aldrich) and 1 mM InSolution [COMPOUND LEFT OUT] (Sigma Aldrich). The resuspended cell mixture was added to 0.5 mL of 0.1 mm glass beads (Biospec) and homogenized using a benchtop homogenizer (MP Biomedicals). Cell debris was separated from the crude extract by centrifugation at 4 °C and 15,000 RPM for 5 min. Protein purification was performed using His-Spin Protein Miniprep (Zymo Research Corporation) according to the manufacturer's instructions. The concentrations of purified protein were quantified by a Bradford assay using BSA as a standard. Purified protein was stored in aliquots with 20% (v/v) glycerol at −80 °C.
# NMNH generation. NMNH generation was performed in 20 mL reaction volumes in a 50 ml conical tube containing 200 mM Tris-Cl at pH 8.0, 100 mM sodium chloride, 3 mM potassium chloride, 200 mM glucose, and 20 m MNMN^+. The reaction was initiating by spiking 500 ng of purified Bacillus subtilis glucose dehydrogenase I195R8. The reaction was incubated at 30 °C until reaction progression stopped, approximately 6 h. Reaction progression was monitored by observing the increase in light absorption at 340 nm, corresponding to the reduction of NMN^+ to NMNH. Then, the solution was filtered through a 15 kD cutoff filter to remove the protein. […] The elution step was repeated until no NMNH remained in the flow through, as monitored by light absorption at 340 nm. […]
# (§2) Lp Nox Enzymatic Assays and Kinetic study with NMNH, NAD(P) H. The Lp Nox activity (see FIG. 4A) was determined by the change in light absorption at 340 nm at 37 °C in 50 mM Tris-Cl buffer pH 7.0. […] The absorbance change at 340 nm for NAD(P) H and NMNH was detected using a SpectraMax M3 microplate reader. […] Cofactor concentration over 2 mM could not be measured accurately on M3 spectrometer due to detector absorbance saturation at 340 nm.
# [2] = biological target: T2, Lactobacillus pentosus NADH oxidase (Lp Nox) variant LP-7 (I158S-D177W-V240L), SEQ ID NO:3 (Lactiplantibacillus pentosus, UniProt A0A0U3FIG2, D177W/I158S/V240L); assay: Lp Nox enzymatic kinetics, cofactor oxidation at 340 nm, variant LP-7; assay type: biochemical; details: role: cofactor
# T2 construct: variant LP-7
# T2 sequence (A0A0U3FIG2 1-450 I158S/D177W/V240L): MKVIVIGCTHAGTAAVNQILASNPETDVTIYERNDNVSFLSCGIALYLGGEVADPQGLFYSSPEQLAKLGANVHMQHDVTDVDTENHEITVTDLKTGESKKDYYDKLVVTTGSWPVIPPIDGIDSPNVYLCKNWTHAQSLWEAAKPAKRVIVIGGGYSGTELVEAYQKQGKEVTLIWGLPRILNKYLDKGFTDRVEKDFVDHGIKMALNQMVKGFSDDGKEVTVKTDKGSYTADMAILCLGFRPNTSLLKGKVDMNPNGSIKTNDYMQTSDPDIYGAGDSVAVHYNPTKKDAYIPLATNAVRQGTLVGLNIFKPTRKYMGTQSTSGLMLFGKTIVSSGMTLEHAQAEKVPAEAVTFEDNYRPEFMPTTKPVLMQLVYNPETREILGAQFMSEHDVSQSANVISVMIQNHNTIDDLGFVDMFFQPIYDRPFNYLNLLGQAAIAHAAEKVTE
# Protocol: as §1
# (§3) NMNH generation. NMNH generation was performed in 20 mL reaction volumes in a 50 ml conical tube containing 200 mM Tris-Cl at pH 8.0, 100 mM sodium chloride, 3 mM potassium chloride, 200 mM glucose, and 20 m MNMN^+. The reaction was initiating by spiking 500 ng of purified Bacillus subtilis glucose dehydrogenase I195R8. The reaction was incubated at 30 °C until reaction progression stopped, approximately 6 h. Reaction progression was monitored by observing the increase in light absorption at 340 nm, corresponding to the reduction of NMN^+ to NMNH. Then, the solution was filtered through a 15 kD cutoff filter to remove the protein. To purify the NMNH, the flowthrough was mixed with HPLC-grade acetonitrile to a final concentration of 70% acetonitrile, and the solution was passed through a Phenomenex Strata NH2 (2 g/12 mL, 55 μm, 70 Å) solid phase extraction column. The column was washed twice with 4 mL of 70:30 acetonitrile:water, then twice with 4 mL of 50:50 acetonitrile:water, twice with 4 mL of 30:70 acetonitrile:water, twice with 4 mL of nanopurified water, and finally twice with 4 mL of methanol. To elute the NMNH from the column, 2 mL of a solution containing 50:50 ammonium hydroxide:methanol was added to the column and incubated for 3 minutes before eluting. The elution step was repeated until no NMNH remained in the flow through, as monitored by light absorption at 340 nm. The elution fractions containing NMNH were pooled and aliquoted in 1 mL volumes into clean tubes. The solutions were dried over air and stored at −80 °C until use.
# (§4) Lp Nox Enzymatic Assays and Kinetic study with NMNH, NAD(P) H. The Lp Nox activity (see FIG. 4A) was determined by the change in light absorption at 340 nm at 37 °C in 50 mM Tris-Cl buffer pH 7.0. The reactions were started by adding the purified protein to the prewarmed 37 °C assay mixture containing 0.3 mM of respective cofactor. The absorbance change at 340 nm for NAD(P) H and NMNH was detected using a SpectraMax M3 microplate reader. For kinetics parameter determination (see Table 2), cofactor concentrations were varied from 0 to 2 mM and the results were fitted to the standard Michaelis-Menten equation or Lineweaver-Burk equation to acquire catalytic efficiencies (kcat/Km) when the cofactor concentration tested could not saturate the enzyme activity or during the presence of substrate inhibition. Cofactor concentration over 2 mM could not be measured accurately on M3 spectrometer due to detector absorbance saturation at 340 nm.
# [3] = biological target: T3, Lactobacillus pentosus NADH oxidase (Lp Nox) variant LP-3 (I158S-D177W-G178E-V240L), SEQ ID NO:6 (Lactiplantibacillus pentosus, UniProt A0A0U3FIG2, D177W/G178E/I158S/V240L); assay: Lp Nox enzymatic kinetics, cofactor oxidation at 340 nm, variant LP-3; assay type: biochemical; details: role: cofactor; 50 mM Tris-HCl pH 7.0, 37 °C; enzyme could not be saturated with the cofactor concentrations tested
# T3 construct: variant LP-3
# T3 sequence (A0A0U3FIG2 1-450 I158S/D177W/G178E/V240L): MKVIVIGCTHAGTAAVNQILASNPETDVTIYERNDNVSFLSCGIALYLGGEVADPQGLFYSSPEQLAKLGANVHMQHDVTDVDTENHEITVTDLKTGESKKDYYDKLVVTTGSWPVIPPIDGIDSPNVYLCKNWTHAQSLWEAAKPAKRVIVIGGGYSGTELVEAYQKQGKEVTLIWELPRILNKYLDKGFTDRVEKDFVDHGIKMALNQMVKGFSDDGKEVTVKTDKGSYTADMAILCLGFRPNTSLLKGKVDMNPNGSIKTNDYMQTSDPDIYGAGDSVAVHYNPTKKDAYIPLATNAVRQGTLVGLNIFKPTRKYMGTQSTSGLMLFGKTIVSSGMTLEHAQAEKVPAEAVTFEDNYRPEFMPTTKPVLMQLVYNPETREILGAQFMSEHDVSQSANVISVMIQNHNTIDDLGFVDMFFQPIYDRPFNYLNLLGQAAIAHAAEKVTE
# Protocol: as §1, §3, §4
# [4] = biological target: T4, Lactobacillus pentosus NADH oxidase (Lp Nox) variant LP-3-EP (I158S-D177W-G178E-V240L-P362H-V395L), SEQ ID NO:7 (Lactiplantibacillus pentosus, UniProt A0A0U3FIG2, D177W/G178E/I158S/P362H/V240L/V395L); assay: Lp Nox enzymatic kinetics, cofactor oxidation at 340 nm, variant LP-3-EP; assay type: biochemical; details: role: cofactor
# T4 construct: variant LP-3-EP
# T4 sequence (A0A0U3FIG2 1-450 I158S/D177W/G178E/V240L/P362H/V395L): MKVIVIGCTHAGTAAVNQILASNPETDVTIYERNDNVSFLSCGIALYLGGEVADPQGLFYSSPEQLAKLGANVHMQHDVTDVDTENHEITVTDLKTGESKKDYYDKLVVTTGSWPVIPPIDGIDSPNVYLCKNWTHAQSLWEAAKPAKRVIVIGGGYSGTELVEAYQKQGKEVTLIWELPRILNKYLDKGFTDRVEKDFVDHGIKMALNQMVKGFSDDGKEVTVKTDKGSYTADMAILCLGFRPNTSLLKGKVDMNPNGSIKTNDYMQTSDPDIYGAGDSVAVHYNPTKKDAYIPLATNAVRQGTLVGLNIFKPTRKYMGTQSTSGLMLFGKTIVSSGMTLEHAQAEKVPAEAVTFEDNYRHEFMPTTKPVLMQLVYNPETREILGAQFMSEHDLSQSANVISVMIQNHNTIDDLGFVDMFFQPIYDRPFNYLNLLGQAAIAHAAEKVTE
# Protocol: as §1, §3, §4
# [5] = substrate: NC(=O)C1=CN([C@@H]2O[C@H](COP(=O)(O)OP(=O)(O)OC[C@H]3O[C@@H](n4cnc5c(N)ncnc54)[C@H](O)[C@@H]3O)[C@@H](O)[C@H]2O)C=CC1; assay: Lp Nox enzymatic kinetics, cofactor oxidation at 340 nm, wild type; assay type: biochemical, Lactobacillus pentosus; details: other: role: cofactor, apparent, 50 mM Tris-HCl pH 7.0, 37 °C, cofactor 0 to 2 mM
# Protocol: as §1, with “Purified protein was stored in aliquots with 20% (v/v) glycerol at −80 °C.” left out
# NMNH generation. […] Reaction progression was monitored by observing the increase in light absorption at 340 nm, corresponding to the reduction of NMN^+ to NMNH. […] The elution step was repeated until no NMNH remained in the flow through, as monitored by light absorption at 340 nm. […]
# as §2
# [6] = 50 mM Tris-HCl pH 7.0, 37 °C, enzyme could not be saturated with the cofactor concentrations tested
Molecule,kcat/Km (catalytic efficiency for NMNH) [1],"kcat/Km (catalytic efficiency for NMNH) [2, 6]",increase of catalytic efficiency for NMNH from the wild type ([2]; ratio of kcat/Km to wild type),kcat/Km (catalytic efficiency for NMNH) [3],"kcat/Km (catalytic efficiency for NMNH) [4, 6]",inhibition effect when NMNH was utilized ([4]; NMNH as cofactor),gain of catalytic efficiency for NMNH from LP 3 ([4]; ratio of kcat/Km to LP 3),increase of catalytic efficiency for NMNH from the wild type ([4]; ratio of kcat/Km to wild type),Km [5],kcat [5],kcat/Km [5]
"NC(=O)C1=CN([C@@H]2O[C@H](COP(=O)(O)O)[C@@H](O)[C@H]2O)C=CC1 [NMNH, nicotinamide mononucleotide]",2300 ± 100 M⁻¹ s⁻¹,18000 ± 1000 M⁻¹ s⁻¹,~ 8 fold,10000 ± 1000 M⁻¹ s⁻¹,23000 ± 1000 M⁻¹ s⁻¹,not seen,~ 2.5 fold,~ 10 fold,–,–,–
"Lactobacillus pentosus NADH oxidase (Lp Nox), wild type, SEQ ID NO:1 (Lactiplantibacillus pentosus) (protein) MKVIVIGCTHAGTAAVNQILASNPETDVTIYERNDNVSFLSCGIALYLGGEVADPQGLFYSSPEQLAKLGANVHMQHDVTDVDTENHEITVTDLKTGESKKDYYDKLVVTTGSWPVIPPIDGIDSPNVYLCKNWTHAQSLWEAAKPAKRVIVIGGGYIGTELVEAYQKQGKEVTLIDGLPRILNKYLDKGFTDRVEKDFVDHGIKMALNQMVKGFSDDGKEVTVKTDKGSYTADMAILCVGFRPNTSLLKGKVDMNPNGSIKTNDYMQTSDPDIYGAGDSVAVHYNPTKKDAYIPLATNAVRQGTLVGLNIFKPTRKYMGTQSTSGLMLFGKTIVSSGMTLEHAQAEKVPAEAVTFEDNYRPEFMPTTKPVLMQLVYNPETREILGAQFMSEHDVSQSANVISVMIQNHNTIDDLGFVDMFFQPIYDRPFNYLNLLGQAAIAHAAEKVTE",–,–,–,–,–,–,–,–,24 ± 5 µM,21 ± 1 s⁻¹,844000 ± 4000 M⁻¹ s⁻¹
